These results are taken from PMC12081876, “Identification of PTGR2 inhibitors as a new therapeutic strategy for diabetes and obesity” (EMBO Molecular Medicine, 2025).

In one data set the target is T1, murine PPARγ (mPPARγ) (Mus musculus, UniProt P37238).
T1 construct: host or cells: HEK293T
Nature of the data set: Gal4-PPARγ/UAS-LUC reporter assay in HEK293T cells. The arrangement: key to Gal4-PPARγ/UAS-LUC reporter activity, Fig 1B replicates: luciferase activity normalized to TK reporter signal. It is filed as cell-based. On the procedure:
Briefly, HEK293T cells were seeded in 24-well plates at 1 × 10^5 cells/well. […] Luciferase activity was measured using Luc-Pair™ Duo-Luciferase HS Assay Kit (cat. no. LF600, Promega) and normalized with the TK reporter signal.

The next data set has as its target T2, mPPARγ (Mus musculus, UniProt P37238).
T2 construct: from tissue; host or cells: perigonadal (epididymal) white adipose tissue of Ptgr2+/+ and Ptgr2-/- mice
Nature of the data set: Co-immunoprecipitation in mouse white adipose tissue. In kind it is binding. The following applies: epididymal white adipose tissue of Ptgr2+/+ and Ptgr2−/− mice. An excerpt:
Lysates from the perigonadal fat of Ptgr2^+/+ and Ptgr2^−/− mice were immunoprecipitated with a mouse anti-15-keto-PGE2-cysteine-BSA antibody (1:1000) and then immunoblotted with a rat anti-PPARγ antibody (1:1000, cat. no. sc-7273, Santa Cruz Biotechnology).

Another data set deals with phospho-Akt. As to the kind of experiment: Insulin signaling in vivo (phospho-Akt immunoblot). The arrangement: species or system mouse. The following applies: 40 mg/kg/day ip, HFHSD-fed mice, vs vehicle. The method, then:
To evaluate insulin signaling in vivo, mice were fasted overnight. Tissue was harvested 15 min after intraperitoneal insulin injection. The samples (perigonadal fat, inguinal fat, brown adipose tissue and liver) were extracted with RIPA buffer (50 mM Tris-HCl, pH 7.4, 2 mM ethylenediaminetetraacetic acid [EDTA]), 150 mM NaCl, 50 mM NaF, 1% Nonidet P-40, 1 mM phenylmethylsulfonyl fluoride [PMSF], 0.5% sodium deoxycholate, and 0.1% sodium dodecyl sulfate [SDS]) containing phosphatase inhibitor cocktail (cat. no. 04693132001, Roche) and homogenized. The homogenates were then centrifuged at 13,000 rpm for 10 min at 4 °C to remove debris. Samples were separated by SDS-polyacrylamide gel electrophoresis, transferred to polyvinylidene difluoride (PVDF) membrane, blocked with 3% BSA, and probed with anti-phospho-Akt antibody (cat. no. 4058, Cell Signaling) and anti-Akt antibody (cat. no. 9272, Cell Signaling), and then with HRP conjugated anti-rabbit IgG antibody (1:10,000; cat. no. GTX26721, GeneTex).

A further data set deals with Ucp1. As to the kind of experiment: Relative Ucp1 expression in fat depots (RT-qPCR). In kind it is in vivo, mouse. The following applies: 40 mg/kg/day ip, HFHSD-fed mice, vs vehicle.
The nature of data set [1]: Necropsy, gross and histopathological examination. The conditions noted are these: for overall toxicity / pathology conclusion: mice treated 26 weeks. In kind it is in vivo, mouse. The arrangement: key to Brain, Forebrain / Brain, Cerebellum and Pons / Heart: Vacuolation, cardiomyocyte / Lung: Alveolar epithelium hyperplasia / Lung: Chronic inflammation, focal / Liver: Hepatocellular adenoma, multiple / Brain, Midbrain / Kidney: Hyaline cast, renal tubule / Kidney: Cytoplasmic vacuolation, renal tubule / Kidney: Mineralization, renal tubule / Pancreas: Atrophy and accumulation adipocyte, acinar cell / Pancreas: Pancreatic islets hyperplasia / Pancreas: Lymphocytic infiltration, perivascular / Brown fat: Increased adipocyte size / White fat (Perigonadal fat) / Bone marrow, Sternum/ Femur / Bone marrow: Mineralization, focal / Bone marrow: Cellularity, decreased, bone marrow: + = Present; - =Not present; X=Not remarkable lesion; 1 = minimal (< 1%); 2 = mild (1–25%); 3 = moderate (26–50%); 4 = moderately severe (51–75%); 5 = severe/high (76–100%). On the procedure:
The animals were sacrificed by exsanguination under anesthesia with pure carbon dioxide.
At necropsy, tissue samples of the submitted mice were collected and preserved in 10% neutral buffered formalin. The required tissues/organs of animals were trimmed, processed, and embedded in paraffin. Sections 3–5 μm in thickness were cut and put on slides for hematoxylin and eosin (H&E) staining. The histopathological evaluation was performed on the submitted tissues. Severity of lesions was graded according to the methods described (Shackelford et al, [2002]). Degrees of lesions were graded histopathologically from one to five depending on severity (1 = minimal; 2 = slight; 3 = moderate; 4 = moderately severe; 5 = severe/high).

[2] abbreviates: Test group, one animal, 26 weeks.
Setting [3] is: Test group, one value per animal, 26 weeks.

Values joined by “and” are separate entries in the source; they are usually repeats but may differ in a detail not shown here. Equal values may be shown once.

T1 sequence (P37238 with tags, fused parts or gaps limits assumed): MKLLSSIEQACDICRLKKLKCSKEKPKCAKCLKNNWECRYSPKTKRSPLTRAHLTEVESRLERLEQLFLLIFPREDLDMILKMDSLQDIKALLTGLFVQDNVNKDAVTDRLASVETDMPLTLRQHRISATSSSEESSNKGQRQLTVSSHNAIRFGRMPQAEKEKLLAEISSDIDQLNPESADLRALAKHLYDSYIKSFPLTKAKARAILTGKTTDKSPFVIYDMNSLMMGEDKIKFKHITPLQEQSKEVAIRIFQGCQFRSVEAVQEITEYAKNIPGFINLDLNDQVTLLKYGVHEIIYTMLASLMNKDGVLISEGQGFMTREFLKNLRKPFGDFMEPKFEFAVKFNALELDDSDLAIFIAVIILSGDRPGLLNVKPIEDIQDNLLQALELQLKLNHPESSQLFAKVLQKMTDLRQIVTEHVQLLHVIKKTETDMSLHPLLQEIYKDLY
T2 sequence (P37238 whole entry): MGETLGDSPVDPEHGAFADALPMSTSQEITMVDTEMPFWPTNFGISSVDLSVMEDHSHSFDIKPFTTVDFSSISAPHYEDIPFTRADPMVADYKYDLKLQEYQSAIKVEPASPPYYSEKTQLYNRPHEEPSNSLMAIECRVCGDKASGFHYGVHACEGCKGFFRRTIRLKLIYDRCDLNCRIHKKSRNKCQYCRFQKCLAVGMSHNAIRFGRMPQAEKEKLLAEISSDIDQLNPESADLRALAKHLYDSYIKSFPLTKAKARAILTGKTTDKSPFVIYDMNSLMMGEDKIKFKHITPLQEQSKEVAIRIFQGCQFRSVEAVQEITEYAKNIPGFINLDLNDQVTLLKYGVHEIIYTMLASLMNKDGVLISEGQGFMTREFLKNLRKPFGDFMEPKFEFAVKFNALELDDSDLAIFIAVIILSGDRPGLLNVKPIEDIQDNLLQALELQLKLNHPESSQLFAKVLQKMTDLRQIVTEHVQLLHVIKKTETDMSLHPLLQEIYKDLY

For the compound `CCCCCC(=O)/C=C/[C@H]1[C@H](O)CC(=O)[C@@H]1C/C=C\CCCC(=O)O` [15-keto-PGE2, 15-keto-prostaglandin E2], the “Gal4-PPARγ/UAS-LUC reporter activity, Fig 1B replicates” value at murine PPARγ (mPPARγ) (15kPGE2 5μM) is 2.161 and 2.101 and 1.961; at murine PPARγ (mPPARγ) (15kPGE2 10μM), 2.283 and 3.108 and 3.049; at murine PPARγ (mPPARγ) (15kPGE2 30μM) it was 5.273 and 6.22 and 5.349. Besides, the “transactivation activity of PPARγ (Gal4-PPARγ/UAS-LUC reporter)” value on murine PPARγ (mPPARγ) (HEK293T cells) is given as “enhanced the transactivation activity of PPARγ in a dose-dependent manner”. Also, the “co-immunoprecipitation of mPPARγ with anti-15-keto-PGE2-cysteine-BSA antibody in fat tissue” value at mPPARγ is “confirming the covalent binding of mPPARγ to 15-keto-PGE2”. For the same compound, the “phospho-Akt after insulin injection (immunoblot)” value in the data set with phospho-Akt was “increased phospho-Akt in perigonadal fat, inguinal fat, brown adipose tissue, and liver”. Besides, in the data set on Ucp1, the “expression of Ucp1 in fat depots” value was “increased expression of Ucp1 in inguinal, perigonadal, and brown adipose tissues”.

Consider `Cc1[nH]c2nc(C(C)N3CCN(c4ccccc4)CC3)nn2c(=O)c1Cc1ccc(F)cc1` (centres unmarked) [BPRPT0245], for which the “Pathological examination of bone marrow, brain, heart, lung, kidney, pancreas, brown fat, perigonadal fat” value in data set [1] (26 weeks, vs vehicle) is listed as “no significant difference”. Besides, the “White fat (Perigonadal fat)” value in data set [1] (Test group, first two animals, 26 weeks) was “X”. Also, the “White fat (Perigonadal fat): Inflammatory cell infiltration” value in data set [1] (Test group, last two animals, 26 weeks) was 1 (1 = minimal (< 1%)) and 2 (2 = mild (1–25%)). For the same compound, in data set [1] (setting [2]), the “Bone marrow: Cellularity, decreased, bone marrow” value is “-”; the “Bone marrow: Infiltration, lymphocyte” value is reported as 1 (1 = minimal (< 1%)); the “Bone marrow: Mineralization, focal” value is given as “-”. In data set [1] (Test group, one value per animal (T1,T2,T2[sic],T4), 26 weeks), the “Brain, Forebrain” value was “X”. Also, in data set [1] (setting [3]), the “Brain, Cerebellum and Pons” value is listed as “X”; the “Brain, Midbrain” value is reported as “X”; the “Brown fat: Increased adipocyte size” value is on record as “+”; the “Heart: Inflammatory cell infiltration/Cardiomyopathy” value was 2 (2 = mild (1–25%)) (3×) and 1 (1 = minimal (< 1%)). In data set [1] (setting [3]), the “Heart: Vacuolation, cardiomyocyte” value was “- (3×) and 2 (2 = mild (1–25%))”; the “Kidney: Cytoplasmic vacuolation, renal tubule” value was 2 (2 = mild (1–25%)) (3×) and -; the “Kidney: Hyaline cast, renal tubule” value was 1 (1 = minimal (< 1%)) and - (3×); the “Kidney: Inflammatory cell infiltration, peripelvic /perivacscular” value was 2 (2 = mild (1–25%)) (3×) and 1 (1 = minimal (< 1%)). Moreover, in data set [1] (setting [3]), the “Kidney: Mineralization, renal tubule” value was 1 (1 = minimal (< 1%)) and - (3×); the “Kidney: Tubular degeneration/regeneration with inflammatory cell infiltration” value is 2 (2 = mild (1–25%)); the “Liver: Hepatocellular adenoma, multiple” value was “-”; the “Liver: Inflammation” value was 1 (1 = minimal (< 1%)) (2×) and 2 (2 = mild (1–25%)) (2×). In addition, in data set [1] (setting [3]), the “Liver: Lymphocytic cell infiltration, perivascular” value is 1 (1 = minimal (< 1%)) (2×) and 2 (2 = mild (1–25%)) (2×); the “Liver: Steatosis” value was 2 (2 = mild (1–25%)) (2×) and 4 (4 = moderately severe (51–75%)) (2×); the “Lung: Alveolar epithelium hyperplasia” value is 2 (2 = mild (1–25%)) and - (3×); the “Lung: Chronic inflammation, focal” value is 1 (1 = minimal (< 1%)) (2×) and - (2×). Further, in data set [1] (setting [3]), the “Lung: Inflammatory cell infiltration, perivascular” value was 1 (1 = minimal (< 1%)) (2×) and 2 (2 = mild (1–25%)) (2×); the “Pancreas: Atrophy and accumulation adipocyte, acinar cell” value is reported as “-”; the “Pancreas: Fat infiltration, exocrine” value was 2 (2 = mild (1–25%)) (2×) and 1 (1 = minimal (< 1%)) (2×); the “Pancreas: Lymphocytic infiltration, perivascular” value is “- (2×) and 2 (2 = mild (1–25%)) (2×)”. The “Pancreas: Pancreatic islets hyperplasia” value in data set [1] (setting [3]) is 1 (1 = minimal (< 1%)) (2×) and - (2×). In addition, the “Bone marrow, Sternum/ Femur” value in data set [1] (Test group, three animals, 26 weeks) was “X”. In data set [1], the “overall toxicity / pathology conclusion” value was “no detectable toxicity”. For the same compound, the “overall toxicity / pathology conclusion” value in data set [1] (listed as test article) was “not related”.
